The record followed here is patent publication US9423396B2, “Bodipy structure fluorescence probes for diverse biological applications” (National University of Singapore, priority 2011, dated 2016).

The data set is described as follows: Spectroscopic measurements (absorption, emission, quantum yield, extinction coefficient). It is filed as physicochemical. The settings on record: BDNCA library; for Abs: absorption; for Flu-Abs: difference emission minus absorption; for ε: extinction coefficient, in M-1 cm-1 (unit assumed); for Flu: fluorescence emission.

In the case of `CCCCOc1ccc(/C=C/C2=[N+]3C(=C(c4ccc(NC(=O)CCl)cc4)c4cccn4[B-]3(F)F)C(C)=C2)cc1` [BDNCA-46], the “Qunt. Yield” value worked out at 0.10, the Abs was 566 nm, the Flu-Abs is reported as 32 and the ε is given as 42,563. The compound also had a Flu of 598.
`C=CCOc1ccc(/C=C/C2=[N+]3C(=C(c4ccc(NC(=O)CCl)cc4)c4cccn4[B-]3(F)F)C(C)=C2)cc1` [BDNCA-48]: the “Qunt. Yield” value amounted to 0.07, the Abs worked out at 566 nm, the Flu-Abs was 31 and the ε is reported as 44,211. This compound also returned a Flu of 597.
The corresponding values for `CCOC(OCC)c1ccc(/C=C/C2=[N+]3C(=C(c4ccc(NC(=O)CCl)cc4)c4cccn4[B-]3(F)F)C(C)=C2)cc1` [BDNCA-49] are 0.03, 564 nm, 17, 20,046 and 581.
On to `Cc1cc(/C=C/c2ccc(OCc3ccc(Br)cc3)cc2)n2c1C(c1ccc(NC(=O)CCl)cc1)=C1C=CC=[N+]1[B-]2(F)F` [BDNCA-52], for which the “Qunt. Yield” value was 0.05, the Abs worked out at 556 nm, the Flu-Abs is 24 and the ε is recorded as 36,247. Also, the Flu is given as 580.
With `CCOc1ccc(/C=C/C2=[N+]3C(=C(c4ccc(NC(=O)CCl)cc4)c4cccn4[B-]3(F)F)C(C)=C2)cc1OCC` [BDNCA-53], the “Qunt. Yield” value amounted to 0.06, the Abs was found to be 570 nm, the Flu-Abs stood at 51 and the ε is given as 31,579. Besides, the Flu was 621.
With `COc1ccc(Br)cc1/C=C/c1cc(C)c2n1[B-](F)(F)[N+]1=CC=CC1=C2c1ccc(NC(=O)CCl)cc1` [BDNCA-54], the “Qunt. Yield” value stood at 0.07, the Abs is 562 nm, the Flu-Abs is 19 and the ε is recorded as 38,169. This compound yielded a Flu of 581.
For `CC1=CC(/C=C/c2cc(Cl)cc(Cl)c2O)=[N+]2C1=C(c1ccc(NC(=O)CCl)cc1)c1cccn1[B-]2(F)F` [BDNCA-57], in that order: 0.02, 561 nm, 16, 23,066 and 577.
As to `COc1ccc2ccccc2c1/C=C/C1=[N+]2C(=C(c3ccc(NC(=O)CCl)cc3)c3cccn3[B-]2(F)F)C(C)=C1` [BDNCA-61], the “Qunt. Yield” value is recorded as 0.08, the Abs was determined as 581 nm, the Flu-Abs amounted to 46 and the ε is 33,776. Moreover, the Flu is given as 627.
On to `COc1ccc(/C=C/C2=[N+]3C(=C(c4ccc(NC(=O)CCl)cc4)c4cccn4[B-]3(F)F)C(C)=C2)cc1OC` [BDNCA-62], for which the “Qunt. Yield” value is recorded as 0.08, the Abs came to 570 nm, the Flu-Abs is 48 and the ε was 38,169. The same compound displayed a Flu of 618.
The corresponding values for `CCOc1ccc(/C=C/C2=[N+]3C(=C(c4ccc(NC(=O)CCl)cc4)c4cccn4[B-]3(F)F)C(C)=C2)cc1OC` [BDNCA-63] are 0.07, 572 nm, 51, 35,149 and 623.
As for `CC1=CC(/C=C/c2ccc(-c3ccccc3)s2)=[N+]2C1=C(c1ccc(NC(=O)CCl)cc1)c1cccn1[B-]2(F)F` [BDNCA-65], the “Qunt. Yield” value is reported as 0.04, the Abs stood at 593 nm, the Flu-Abs was 37 and the ε is on record as 30,755. Further, the Flu was determined as 630.
As to `CC1=CC(/C=C/c2c(C)c(C)c(C)c(C)c2C)=[N+]2C1=C(c1ccc(NC(=O)CCl)cc1)c1cccn1[B-]2(F)F` [BDNCA-67], the “Qunt. Yield” value is 0.12, the Abs is 542 nm, the Flu-Abs was found to be 40 and the ε was 36,522. The same compound gave a Flu of 582.
On to `CC1=CC(/C=C/c2ccc(OC(F)(F)F)cc2)=[N+]2C1=C(c1ccc(NC(=O)CCl)cc1)c1cccn1[B-]2(F)F` [BDNCA-68], for which the “Qunt. Yield” value came out at 0.05, the Abs was 553 nm, the Flu-Abs came to 20 and the ε is 27,735. This compound showed a Flu of 573.
For `CC1=CC(/C=C/c2ccc(/C=C/c3ccccc3)cc2)=[N+]2C1=C(c1ccc(NC(=O)CCl)cc1)c1cccn1[B-]2(F)F` [BDNCA-69], in that order: 0.09, 577 nm, 33, 40,641 and 610.
`COc1ccc2c(OC)ccc(/C=C/C3=[N+]4C(=C(c5ccc(NC(=O)CCl)cc5)c5cccn5[B-]4(F)F)C(C)=C3)c2c1` [BDNCA-70]: the “Qunt. Yield” value stood at 0.04, the Abs is 587 nm, the Flu-Abs turned out to be 90 and the ε is 29,931. The compound further displayed a Flu of 677.
Regarding `CC1=CC(/C=C/c2ccoc2)=[N+]2C1=C(c1ccc(NC(=O)CCl)cc1)c1cccn1[B-]2(F)F` [BDNCA-71], the “Qunt. Yield” value amounted to 0.05, the Abs was 550 nm, the Flu-Abs is given as 20 and the ε was 43,661. The Flu is listed as 570.
On to `CC1=CC(/C=C/c2nccn2C)=[N+]2C1=C(c1ccc(NC(=O)CCl)cc1)c1cccn1[B-]2(F)F` [BDNCA-72], for which the “Qunt. Yield” value is recorded as 0.02, the Abs was found to be 573 nm, the Flu-Abs is 45 and the ε was 17,849. The Flu was determined as 618.
Take `CC1=CC(/C=C/c2cc(Br)ccc2O)=[N+]2C1=C(c1ccc(NC(=O)CCl)cc1)c1cccn1[B-]2(F)F` [BDNCA-73]: the “Qunt. Yield” value is reported as 0.04, the Abs was determined as 564 nm, the Flu-Abs was found to be 21 and the ε was 27,185. The compound also gave a Flu of 585.
For `CC1=CC(/C=C/c2ccc(OC(C)(C)C)cc2)=[N+]2C1=C(c1ccc(NC(=O)CCl)cc1)c1cccn1[B-]2(F)F` [BDNCA-75], in that order: 0.09, 562 nm, 38, 35,973 and 600.
For `CCCc1ccc(/C=C/C2=[N+]3C(=C(c4ccc(NC(=O)CCl)cc4)c4cccn4[B-]3(F)F)C(C)=C2)cc1` [BDNCA-77], the “Qunt. Yield” value is 0.09, the Abs worked out at 559 nm, the Flu-Abs worked out at 22 and the ε was 45,034. This compound returned a Flu of 581.
For `COc1cc(OC)c(/C=C/C2=[N+]3C(=C(c4ccc(NC(=O)CCl)cc4)c4cccn4[B-]3(F)F)C(C)=C2)c(OC)c1` [BDNCA-82], in that order: 0.04, 582 nm, 50, 18,398 and 632.
As to `COc1cccc(/C=C/C2=[N+]3C(=C(c4ccc(NC(=O)CCl)cc4)c4cccn4[B-]3(F)F)C(C)=C2)c1OC` [BDNCA-83], the “Qunt. Yield” value is given as 0.12, the Abs is 557 nm, the Flu-Abs turned out to be 20 and the ε is on record as 40,366. The same compound registered a Flu of 577.
As for `CC1=CC(/C=C/C=C(c2ccccc2)c2ccccc2)=[N+]2C1=C(c1ccc(NC(=O)CCl)cc1)c1cccn1[B-]2(F)F` [BDNCA-85], the “Qunt. Yield” value is reported as 0.08, the Abs turned out to be 583 nm, the Flu-Abs was 31 and the ε is reported as 49,977. In addition, the Flu is given as 614.
Consider `CC1=CC(/C=C/c2ccc(-c3ccccn3)cc2)=[N+]2C1=C(c1ccc(NC(=O)CCl)cc1)c1cccn1[B-]2(F)F` [BDNCA-88], for which the “Qunt. Yield” value was found to be 0.11, the Abs came to 566 nm, the Flu-Abs came to 18 and the ε is on record as 27,185. The compound also showed a Flu of 584.
On to `Cc1cc(/C=C/c2ccc3c4c(cccc24)CC3)n2c1C(c1ccc(NC(=O)CCl)cc1)=C1C=CC=[N+]1[B-]2(F)F` [BDNCA-89], for which the “Qunt. Yield” value is reported as 0.08, the Abs came to 580 nm, the Flu-Abs stood at 54 and the ε is given as 33,501. In addition, the Flu is 634.
For `CC1=CC(/C=C/c2ccc(OCc3ccccc3)cc2)=[N+]2C1=C(c1ccc(NC(=O)CCl)cc1)c1cccn1[B-]2(F)F` [BDNCA-90], the “Qunt. Yield” value stood at 0.04, the Abs is 563 nm, the Flu-Abs worked out at 30 and the ε is given as 20,046. This compound also registered a Flu of 593.
In the case of `Cc1cc(/C=C/c2ccc(N(C)CCO)cc2)n2c1C(c1ccc(NC(=O)CCl)cc1)=C1C=CC=[N+]1[B-]2(F)F` [BDNCA-91], the “Qunt. Yield” value is reported as “weak”, the Abs was determined as 559 nm, the ε is given as 34,050 and the Flu entry is “weak”.
As to `COc1cc(/C=C/C2=[N+]3C(=C(c4ccc(NC(=O)CCl)cc4)c4cccn4[B-]3(F)F)C(C)=C2)cc(OC)c1OC(C)=O` [BDNCA-92], the “Qunt. Yield” value was determined as 0.01, the Abs was 555 nm, the Flu-Abs came out at 24 and the ε was 15,652. Moreover, the Flu was 579.
For `CC1=CC(/C=C/c2cn(C)c3ccccc23)=[N+]2C1=C(c1ccc(NC(=O)CCl)cc1)c1cccn1[B-]2(F)F` [BDNCA-94], the “Qunt. Yield” value came to 0.02, the Abs is 548 nm, the Flu-Abs is 114 and the ε is on record as 23,890. Besides, the Flu was 662.
As for `COc1cc(/C=C/C2=[N+]3C(=C(c4ccc(NC(=O)CCl)cc4)c4cccn4[B-]3(F)F)C(C)=C2)cc(OC)c1O` [BDNCA-95], the “Qunt. Yield” value is on record as 0.01, the Abs came out at 574 nm, the Flu-Abs is recorded as 6 and the ε was 31,579. The same compound registered a Flu of 580.
